Laboratory results published in patent publication US9073918B2, “Pyrazolo[4,3-b]pyridine-7-amine inhibitors of ALK5” (Takeda Pharmaceutical Company Limited, priority 2010, dated 2015).
Counter-ions that a name gives are not always drawn.

Assays:
cellular TGF-β R1 ALK5 = biological target: T1, cellular TGF-β R1 ALK5 (Homo sapiens, UniProt P36897); test: Cellular inhibition of ALK5 (CellSensor SBE-bla HEK 293T beta-lactamase reporter); assay type: cell-based; details: cellular inhibition of ALK5, SBE-bla HEK 293T cells, TGFb-1 stimulated 5 hours; average where measured in multiple experiments
T1 construct: host or cells: CellSensor SBE-bla HEK 293T
T1 sequence (P36897 34-503): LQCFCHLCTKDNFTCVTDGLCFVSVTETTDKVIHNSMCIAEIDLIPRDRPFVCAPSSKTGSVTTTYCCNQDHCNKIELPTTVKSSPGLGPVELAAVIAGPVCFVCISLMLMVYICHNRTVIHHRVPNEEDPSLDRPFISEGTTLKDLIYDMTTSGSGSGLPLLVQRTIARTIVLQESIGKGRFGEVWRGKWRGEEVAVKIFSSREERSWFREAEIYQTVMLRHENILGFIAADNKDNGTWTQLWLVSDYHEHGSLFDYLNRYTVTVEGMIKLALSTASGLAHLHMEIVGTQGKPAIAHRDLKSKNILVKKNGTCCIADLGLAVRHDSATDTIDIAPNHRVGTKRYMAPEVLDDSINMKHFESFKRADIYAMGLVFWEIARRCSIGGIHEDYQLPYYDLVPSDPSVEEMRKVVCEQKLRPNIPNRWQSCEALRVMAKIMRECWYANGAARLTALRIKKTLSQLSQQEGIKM
Procedure, shortened: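 pIC50 derives from non-linear fitting of percent inhibition of the 460/530 nm CCF4-AM emission ratio, relative to DMSO+TGF-β wells. HEK 293T SBE-bla cells received compound (0.5% DMSO) for 1 h, TGFb-1 (100 ng/mL stock) for 5 h at 37 °C, then substrate 2 h at RT.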

TGF-β R1 ALK5 = biological target: T2, TGF-β R1 ALK5 (Homo sapiens, UniProt P36897); test: In vitro inhibition of ALK5 (LanthaScreen activity assay, TR-FRET); assay type: biochemical
T2 construct: purchased Invitrogen PV5837
T2 sequence (P36897 34-503): T1 sequence (P36897 34-503)

Molecule	melting point	also measured
Cc1ccc(F)c(-c2cc(Nc3ccnc4cn(C[C@H](O)CO)nc34)ccn2)n1 (as salt: HCl) [Example 69, (S)-3-(7-(3′-fluoro-6′-methyl-2,2′-bipyridin-4-ylamino)-2H-pyrazolo[4,3-b]pyridin-2-yl)propane-1,2-diol]	182 to 184 °C	–
CCNC(=O)n1ncc2nccc(Nc3ccnc(-c4cc(Cl)ccc4F)c3)c21 (as salt: TFA) [Example 29, 7-(2-(5-chloro-2-fluorophenyl)pyridin-4-ylamino)-N-ethyl-1H-pyrazolo[4,3-b]pyridine-1-carboxamide]	256 °C	–
CNC(=O)n1ncc2nccc(Nc3ccnc(-c4cc(Cl)ccc4F)c3)c21 (as salt: TFA) [Example 32, 7-(2-(5-chloro-2-fluorophenyl)pyridin-4-ylamino)-N-methyl-1H-pyrazolo[4,3-b]pyridine-1-carboxamide]	256 °C	–
CN(C)C(=O)Cn1ncc2nccc(Nc3ccnc(-c4cc(Cl)ccc4F)c3)c21 (as salt: TFA) [Example 38, 2-(7-(2-(5-chloro-2-fluorophenyl)pyridin-4-ylamino)-1H-pyrazolo[4,3-b]pyridin-1-yl)-N,N-dimethylacetamide]	293 °C	–
NC(=O)Cn1ncc2nccc(Nc3ccnc(-c4cc(Cl)ccc4F)c3)c21 (as salt: TFA) [Example 44, 2-(7-(2-(5-chloro-2-fluorophenyl)pyridin-4-ylamino)-1H-pyrazolo[4,3-b]pyridin-1-yl)acetamide]	131 to 132 °C	–
CNC(=O)n1ncc2nccc(Nc3cc(-c4cc(Cl)ccc4F)ncc3C)c21 (as salt: TFA) [Example 52, 7-(2-(5-chloro-2-fluorophenyl)-5-methylpyridin-4-ylamino)-N-methyl-1H-pyrazolo[4,3-b]pyridine-1-carboxamide]	135 °C	–
Cc1cnc(-c2cc(Cl)ccc2F)cc1Nc1ccnc2cnn(C(=O)NC(C)C)c12 (as salt: TFA) [Example 54, 7-(2-(5-chloro-2-fluorophenyl)-5-methylpyridin-4-ylamino)-N-isopropyl-1H-pyrazolo[4,3-b]pyridine-1-carboxamide]	292 °C	–
CNC(=O)n1ncc2nccc(Nc3cc(C)nc(-c4cc(Cl)ccc4F)c3)c21 (as salt: TFA) [Example 58, 7-(2-(5-chloro-2-fluorophenyl)-6-methylpyridin-4-ylamino)-N-methyl-1H-pyrazolo[4,3-b]pyridine-1-carboxamide]	248 °C	–
CCNC(=O)n1ncc2nccc(Nc3cc(C)nc(-c4cc(Cl)ccc4F)c3)c21 (as salt: TFA) [Example 59, 7-(2-(5-chloro-2-fluorophenyl)-6-methylpyridin-4-ylamino)-N-ethyl-1H-pyrazolo[4,3-b]pyridine-1-carboxamide]	245 °C	–
Cc1ccc(F)c(-c2cc(Nc3ccnc4cnn(CC(C)(C)O)c34)ccn2)n1 (as salt: TFA) [Example 70, 1-(7-(3′-fluoro-6′-methyl-2,2′-bipyridin-4-ylamino)-1H-pyrazolo[4,3-b]pyridin-1-yl)-2-methylpropan-2-ol]	135 to 136 °C	–
Cc1ccc(F)c(-c2cc(Nc3ccnc4cn(C)nc34)c(C)cn2)n1 [Example 123, N-(3′-fluoro-5,6′-dimethyl-2,2′-bipyridin-4-yl)-2-methyl-2H-pyrazolo[4,3-b]pyridin-7-amine]	102.9 to 103 °C	IC50 (cellular TGF-β R1 ALK5): 0.0794 µM; IC50 (TGF-β R1 ALK5): 0.0251 µM
CCNC(=O)Cn1cc2nccc(Nc3cc(-c4cc(F)ccc4F)ncc3C)c2n1 [Example 156, 2-(7-(2-(2,5-difluorophenyl)-5-methylpyridin-4-ylamino)-2H-pyrazolo[4,3-b]pyridin-2-yl)-N-ethylacetamide]	–	IC50 (cellular TGF-β R1 ALK5): 0.126 µM; IC50 (TGF-β R1 ALK5): 0.00316 µM
Cc1ccc(F)c(-c2cc(Nc3ccnc4cnn(C5CCS(=O)(=O)C5)c34)c(C)cn2)n1 (stereo not drawn) [Example 157, N-[1-(1,1-dioxidotetrahydrothiophen-3-yl)-1H-pyrazolo[4,3-b]pyridin-7-yl]-3′-fluoro-5,6′-dimethyl-2,2′-bipyridin-4-amine]	–	IC50 (cellular TGF-β R1 ALK5): 0.398 µM; IC50 (TGF-β R1 ALK5): 0.0251 µM
CNC(=O)Cn1cc2nccc(Nc3cc(-c4cc(F)ccc4F)ncc3C)c2n1 [Example 158, 2-(7-(2-(2,5-difluorophenyl)-5-methylpyridin-4-ylamino)-2H-pyrazolo[4,3-b]pyridin-2-yl)-N-methylacetamide]	–	IC50 (cellular TGF-β R1 ALK5): 0.126 µM; IC50 (TGF-β R1 ALK5): 0.00631 µM
N-(2-(5-chloro-2-fluorophenyl)pyridin-4-yl)-2-(2-methoxyethyl)-2H-pyrazolo[4,3-b]pyridin-7-amine and N-(2-(5-chloro-2-fluorophenyl)pyridin-4-yl)-1-(2-methoxyethyl)-2H-pyrazolo[4,3-b]pyridin-7-amine [Example 35]	–	pIC50 (cellular TGF-β R1 ALK5): 6.6; pIC50 (TGF-β R1 ALK5; in vitro inhibition of ALK5, 15 nM ALK5, 2 μM ATP, Fluorescein-SMAD3 peptide, 90 minutes at room temperature, average where measured in multiple experiments): 6.6
